Test results taken from ChEMBL document CHEMBL1201862, “PubChem BioAssay data set” (2004).
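Growth conditions: 96-well plates. Treatment: test compound, 48 hours, 5 concentrations. Analysis: linear interpolation between bracketing concentrations; unreached endpoints set to highest concentration. Abbreviation: GI50, concentration required for 50% inhibition of growth.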 Calls of active or inactive are those of the source. Rule as the data show it: active = GI50 up to about 1.1 µM and inactive = higher.

What was measured:
Test in all cases: NCI-60 cell line screen, 48 h
ACHN = system: ACHN
CAKI-1 = system: CAKI-1
HOP-92 = system: HOP-92
K562 = system: K562
M14 = system: M14
MDA-MB-231 = system: MDA-MB-231
Malme-3M = system: Malme-3M
NCI-H522 = system: NCI-H522
OVCAR-3 = system: OVCAR-3
RPMI-8226 = system: RPMI-8226
SF-295 = system: SF-295
SK-MEL-2 = system: SK-MEL-2
SK-MEL-5 = system: SK-MEL-5
SK-OV-3 = system: SK-OV-3
SN12C = system: SN12C
SNB-75 = system: SNB-75
T47D = system: T47D
UACC-257 = system: UACC-257
UACC-62 = system: UACC-62
SF-268 = system: SF-268

| SMILES | GI50 (ACHN) | GI50 (CAKI-1) | GI50 (HOP-92) | GI50 (K562) | GI50 (M14) | GI50 (MDA-MB-231) | GI50 (Malme-3M) | GI50 (NCI-H522) | GI50 (OVCAR-3) | GI50 (RPMI-8226) | GI50 (SF-295) | GI50 (SK-MEL-2) | GI50 (SK-MEL-5) | GI50 (SK-OV-3) | GI50 (SN12C) | GI50 (SNB-75) | GI50 (T47D) | GI50 (UACC-257) | GI50 (UACC-62) | GI50 (SF-268) |
| --- | --- | --- | --- | --- | --- | --- | --- | --- | --- | --- | --- | --- | --- | --- | --- | --- | --- | --- | --- | --- |
| O=C(NNCC(O)COc1ccccc1)c1ccccc1 (centres undefined) | > 100 µM (inactive) | > 100 µM (inactive) | > 100 µM (inactive) | > 100 µM (inactive) | > 100 µM (inactive) | > 100 µM (inactive) | > 100 µM (inactive) | > 100 µM (inactive) | > 100 µM (inactive) | > 100 µM (inactive) | > 100 µM (inactive) | > 100 µM (inactive) | 42 µM (inactive) | > 100 µM (inactive) | > 100 µM (inactive) | > 100 µM (inactive) | > 100 µM (inactive) | > 100 µM (inactive) | > 100 µM (inactive) | – |
| O=P(O)(O)CCP(=O)(O)O | > 100 µM (inactive) | > 100 µM (inactive) | > 100 µM (inactive) | > 100 µM (inactive) | > 100 µM (inactive) | > 100 µM (inactive) | > 100 µM (inactive) | > 100 µM (inactive) | > 100 µM (inactive) | > 100 µM (inactive) | > 100 µM (inactive) | > 100 µM (inactive) | > 100 µM (inactive) | > 100 µM (inactive) | > 100 µM (inactive) | – | > 100 µM (inactive) | 5.62 µM (inactive) | > 100 µM (inactive) | > 100 µM (inactive) |
| CCCCCCCCCC(=O)CC(=O)c1c(O)cc(O)cc1O | 27 µM (inactive) | 31.1 µM (inactive) | 20 µM (inactive) | 15.2 µM (inactive) | 17.1 µM (inactive) | 28.6 µM (inactive) | 14.4 µM (inactive) | 20.2 µM (inactive) | 16.4 µM (inactive) | 16.1 µM (inactive) | 25.9 µM (inactive) | 17.7 µM (inactive) | 15.3 µM (inactive) | 35 µM (inactive) | 20.6 µM (inactive) | 22.2 µM (inactive) | 34.7 µM (inactive) | 23.4 µM (inactive) | – | 18.4 µM (inactive) |
| CC1(O)/C(=N/O)CC2CC1C2(C)C (centres undefined) | > 100 µM (inactive) | – | > 100 µM (inactive) | > 100 µM (inactive) | > 100 µM (inactive) | > 100 µM (inactive) | > 100 µM (inactive) | > 100 µM (inactive) | > 100 µM (inactive) | > 100 µM (inactive) | > 100 µM (inactive) | > 100 µM (inactive) | > 100 µM (inactive) | – | > 100 µM (inactive) | > 100 µM (inactive) | > 100 µM (inactive) | > 100 µM (inactive) | > 100 µM (inactive) | > 100 µM (inactive) |
| CCCNc1ncnc2c1ncn2C | 51.6 µM (inactive) | 36.1 µM (inactive) | 37.6 µM (inactive) | 53.1 µM (inactive) | 58.5 µM (inactive) | 67.1 µM (inactive) | 45.3 µM (inactive) | 41.8 µM (inactive) | 58.5 µM (inactive) | 20.6 µM (inactive) | 40.6 µM (inactive) | > 100 µM (inactive) | > 100 µM (inactive) | > 100 µM (inactive) | 27.4 µM (inactive) | 38.5 µM (inactive) | 44.4 µM (inactive) | > 100 µM (inactive) | 45.1 µM (inactive) | – |
| Cc1cc(C)n(CN(Cn2nc(C)cc2C)C2CCCCC2)n1 | 23.4 µM (inactive) | 31.5 µM (inactive) | 28.8 µM (inactive) | – | 20.3 µM (inactive) | 26.6 µM (inactive) | 20.5 µM (inactive) | 20.7 µM (inactive) | 25.9 µM (inactive) | 18.6 µM (inactive) | 94 µM (inactive) | 17.6 µM (inactive) | 31.2 µM (inactive) | 38 µM (inactive) | 27.5 µM (inactive) | 17.1 µM (inactive) | 28.2 µM (inactive) | 28.1 µM (inactive) | 21.5 µM (inactive) | 33 µM (inactive) |
| CC(NC(=O)C(C)C(=O)Nc1ccc(C(F)(F)F)cc1)C(N)=O (centres undefined) | > 100 µM (inactive) | > 100 µM (inactive) | > 100 µM (inactive) | > 100 µM (inactive) | > 100 µM (inactive) | > 100 µM (inactive) | > 100 µM (inactive) | > 100 µM (inactive) | – | > 100 µM (inactive) | > 100 µM (inactive) | > 100 µM (inactive) | > 100 µM (inactive) | > 100 µM (inactive) | > 100 µM (inactive) | > 100 µM (inactive) | > 100 µM (inactive) | > 100 µM (inactive) | > 100 µM (inactive) | > 100 µM (inactive) |
| CCCN(CCC)C(=S)Sc1nc(C)nc(N2CCN(c3nc(C)nc(SC(=S)N(CCC)CCC)c3[N+](=O)[O-])CC2)c1[N+](=O)[O-] | 13.9 µM (inactive) | 9.16 µM (inactive) | 15.8 µM (inactive) | 1.11 µM (active) | 15.2 µM (inactive) | 7.69 µM (inactive) | 18.8 µM (inactive) | 0.316 µM (active) | – | 0.386 µM (active) | 24.9 µM (inactive) | 7.16 µM (inactive) | 3.16 µM (inactive) | 56.4 µM (inactive) | 8.77 µM (inactive) | 27.5 µM (inactive) | 8.2 µM (inactive) | 15.6 µM (inactive) | 7.94 µM (inactive) | 18.8 µM (inactive) |
| O=C(NC1CCCCC1)N1CCNC1=S | > 100 µM (inactive) | > 100 µM (inactive) | > 100 µM (inactive) | > 100 µM (inactive) | > 100 µM (inactive) | 3.2 µM (inactive) | > 100 µM (inactive) | > 100 µM (inactive) | > 100 µM (inactive) | 65.6 µM (inactive) | > 100 µM (inactive) | 2.94 µM (inactive) | > 100 µM (inactive) | > 100 µM (inactive) | > 100 µM (inactive) | > 100 µM (inactive) | > 100 µM (inactive) | > 100 µM (inactive) | – | > 100 µM (inactive) |
| CC(=O)Nc1ccc(OC/C(N)=N/NC(=O)c2ccncc2)cc1 | > 100 µM (inactive) | > 100 µM (inactive) | > 100 µM (inactive) | > 100 µM (inactive) | > 100 µM (inactive) | > 100 µM (inactive) | – | > 100 µM (inactive) | > 100 µM (inactive) | > 100 µM (inactive) | > 100 µM (inactive) | > 100 µM (inactive) | – | > 100 µM (inactive) | > 100 µM (inactive) | 29.1 µM (inactive) | > 100 µM (inactive) | > 100 µM (inactive) | > 100 µM (inactive) | > 100 µM (inactive) |
| Cc1ccc(CS(=O)(=O)C/N=C2\Sc3ccccc3N\C2=C/C(=O)c2ccc(Cl)cc2)cc1 | > 10 µM (inactive) | > 10 µM (inactive) | > 10 µM (inactive) | > 10 µM (inactive) | > 10 µM (inactive) | > 10 µM (inactive) | > 10 µM (inactive) | > 10 µM (inactive) | > 10 µM (inactive) | > 10 µM (inactive) | > 10 µM (inactive) | – | > 10 µM (inactive) | > 10 µM (inactive) | > 10 µM (inactive) | 3.86 µM (inactive) | 1.71 µM (inactive) | > 10 µM (inactive) | > 10 µM (inactive) | 7.1 µM (inactive) |
| COC(=O)[C@H](C)NC(=O)[C@H](CSC)N1C(=O)N[C@@H](C(C)C)C1=O | > 100 µM (inactive) | > 100 µM (inactive) | > 100 µM (inactive) | 85.5 µM (inactive) | > 100 µM (inactive) | > 100 µM (inactive) | 49 µM (inactive) | > 100 µM (inactive) | > 100 µM (inactive) | > 100 µM (inactive) | > 100 µM (inactive) | > 100 µM (inactive) | > 100 µM (inactive) | > 100 µM (inactive) | > 100 µM (inactive) | 12.5 µM (inactive) | > 100 µM (inactive) | > 100 µM (inactive) | > 100 µM (inactive) | – |
| COc1cc(N(CCC#N)CCC#N)ccc1C(/N=N/c1cccc([N+](=O)[O-])c1)=N\NC(=O)c1ccc(C)cc1 | > 100 µM (inactive) | > 100 µM (inactive) | 33.9 µM (inactive) | 73.5 µM (inactive) | > 100 µM (inactive) | > 100 µM (inactive) | > 100 µM (inactive) | 26.5 µM (inactive) | 96.8 µM (inactive) | 18.6 µM (inactive) | > 100 µM (inactive) | > 100 µM (inactive) | 59 µM (inactive) | > 100 µM (inactive) | > 100 µM (inactive) | – | 27.8 µM (inactive) | 14.5 µM (inactive) | > 100 µM (inactive) | > 100 µM (inactive) |
| C=CCOc1ccc(C2C(C(=O)OCC)C(=O)CC(C)(O)C2C(=O)OCC)cc1OC (centres undefined) | > 100 µM (inactive) | > 100 µM (inactive) | > 100 µM (inactive) | > 100 µM (inactive) | > 100 µM (inactive) | > 100 µM (inactive) | > 100 µM (inactive) | > 100 µM (inactive) | > 100 µM (inactive) | > 100 µM (inactive) | > 100 µM (inactive) | > 100 µM (inactive) | > 100 µM (inactive) | – | > 100 µM (inactive) | > 100 µM (inactive) | > 100 µM (inactive) | > 100 µM (inactive) | > 100 µM (inactive) | > 100 µM (inactive) |
